Test results reported in patent US8829007B2 (priority 2009, dated 2014).

Key:
[1] = tested on: influenza A virus (A/PR/8/34); assay: microbe, parasite or virus in culture; type: cell-based; details: Influenza A virus, PR/8, MDCK, MDCK cells infected with A/PR/8/34; survival of infected cells; class symbols; read-out: IC50 (mean all)
[2] = tested on: A/PR/8/34 influenza virus; assay: microbe, parasite or virus in culture; type: cell-based; details: Influenza A virus, PR/8, MDCK, MDCK cells infected with A/PR/8/34; replication of influenza virus (viral RNA, bDNA); class symbols; read-out: EC50 (mean all)

Compound | IC50 [1] | EC50 [2]
COCCC(=O)N1CCC[C@H](CNc2ccnc(-c3c[nH]c4ncc(Cl)cc34)n2)C1 [Compound 493, (R)-1-(3-((2-(5-chloro-1H-pyrrolo[2,3-b]pyridin-3-yl)pyrimidin-4-ylamino)methyl)piperidin-1-yl)-3-methoxypropan-1-one] | < 5 µM | < 5 µM
CC(=O)N1CCCC(Nc2nc(-c3c[nH]c4ncc(Cl)cc34)ncc2F)CC1 (stereo not shown) [Compound 497, 1-(4-(2-(5-chloro-1H-pyrrolo[2,3-b]pyridin-3-yl)-5-fluoropyrimidin-4-ylamino)azepan-1-yl)ethanone] | < 5 µM | < 5 µM
CN(C)C(=O)N1CCCC(Nc2nc(-c3c[nH]c4ncc(Cl)cc34)ncc2F)CC1 (stereo not shown) [Compound 499, 4-(2-(5-chloro-1H-pyrrolo[2,3-b]pyridin-3-yl)-5-fluoropyrimidin-4-ylamino)-N,N-dimethylazepane-1-carboxamide] | < 5 µM | < 5 µM
O=C1NCCCC[C@@H]1Nc1ccnc(-c2c[nH]c3ncc(Cl)cc23)n1 [Compound 500] | < 5 µM | < 5 µM
O=C1NCCCC[C@@H]1Nc1nc(-c2c[nH]c3ncc(C(F)(F)F)cc23)ncc1F [Compound 502, (S)-3-(5-fluoro-2-(5-(trifluoromethyl)-1H-pyrrolo[2,3-b]pyridin-3-yl)pyrimidin-4-ylamino)azepan-2-one] | < 5 µM | < 5 µM
CC1(C)CCC[C@H](Nc2nc(-c3c[nH]c4ncc(Cl)cc34)ncc2F)C(=O)N1 [Compound 504] | 5 to 20 µM | < 5 µM
CNC(=O)N1CCCC(Nc2nc(-c3c[nH]c4ncc(Cl)cc34)ncc2F)CC1 (stereo not shown) [Compound 506, 4-(2-(5-chloro-1H-pyrrolo[2,3-b]pyridin-3-yl)-5-fluoropyrimidin-4-ylamino)-N-methylazepane-1-carboxamide] | < 5 µM | < 5 µM
NC(=O)N1CCC[C@H](Nc2nc(-c3c[nH]c4ncc(Cl)cc34)ncc2F)C1 [Compound 507] | < 5 µM | < 5 µM
NC(=O)N1CCCC(Nc2nc(-c3c[nH]c4ncc(Cl)cc34)ncc2F)CC1 (stereo not shown) [Compound 509, 4-(2-(5-chloro-1H-pyrrolo[2,3-b]pyridin-3-yl)-5-fluoropyrimidin-4-ylamino)azepane-1-carboxamide] | < 5 µM | < 5 µM
NC(=O)N1CC(Nc2nc(-c3c[nH]c4ncc(Cl)cc34)ncc2F)C1 [Compound 512] | > 20 µM | 5 to 10 µM
O=C1NCCOCC1Nc1nc(-c2c[nH]c3ncc(Cl)cc23)ncc1F (stereo not shown) [Compound 513, 6-(2-(5-chloro-1H-pyrrolo[2,3-b]pyridin-3-yl)-5-fluoropyrimidin-4-ylamino)-1,4-oxazepan-5-one] | 5 to 20 µM | < 5 µM
OC1CCCC(Nc2nc(-c3c[nH]c4ncc(Cl)cc34)ncc2F)C1 [Compound 524, (3S)-3-((2-(5-chloro-1H-pyrrolo[2,3-b]pyridin-3-yl)-5-fluoropyrimidin-4-ylamino)cyclohexanol] | < 5 µM | < 5 µM
OCC(O)CN1CCCC(Nc2nc(-c3c[nH]c4ncc(Cl)cc34)ncc2F)C1 [Compound 525, 3-((S)-3-((2-(5-chloro-1H-pyrrolo[2,3-b]pyridin-3-yl)-5-fluoropyrimidin-4-ylamino)piperidin-1-yl)propane-1,2-diol] | < 5 µM | < 5 µM
COC(=O)N1CCOCC1CNc1nc(-c2c[nH]c3ncc(Cl)cc23)ncc1F (stereo not shown) [Compound 526, Methyl 3-((2-(5-chloro-1H-pyrrolo[2,3-b]pyridin-3-yl)-5-fluoropyrimidin-4-ylamino)methyl)morpholine-4-carboxylate] | 5 to 20 µM | < 5 µM
CCOC(=O)N1CCOCC1CNc1nc(-c2c[nH]c3ncc(Cl)cc23)ncc1F (stereo not shown) [Compound 527, Ethyl 3-((2-(5-chloro-1H-pyrrolo[2,3-b]pyridin-3-yl)-5-fluoropyrimidin-4-ylamino)methyl)morpholine-4-carboxylate] | > 20 µM | > 10 µM
C=CCOC(=O)N1CCOCC1CNc1nc(-c2c[nH]c3ncc(Cl)cc23)ncc1F (stereo not shown) [Compound 528, Allyl 3-((2-(5-chloro-1H-pyrrolo[2,3-b]pyridin-3-yl)-5-fluoropyrimidin-4-ylamino)methyl)morpholine-4-carboxylate] | 5 to 20 µM | > 10 µM
CC(C)C(=O)N1CCOCC1CNc1nc(-c2c[nH]c3ncc(Cl)cc23)ncc1F (stereo not shown) [Compound 529, 1-(3-((2-(5-chloro-1H-pyrrolo[2,3-b]pyridin-3-yl)-5-fluoropyrimidin-4-ylamino)methyl)morpholino)-2-methylpropan-1-one] | 5 to 20 µM | > 10 µM
CC(C)(C)C(=O)N1CCOCC1CNc1nc(-c2c[nH]c3ncc(Cl)cc23)ncc1F (stereo not shown) [Compound 530, 1-(3-((2-(5-chloro-1H-pyrrolo[2,3-b]pyridin-3-yl)-5-fluoropyrimidin-4-ylamino)methyl)morpholino)-2,2-dimethylpropan-1-one] | > 20 µM | 5 to 10 µM
O=C(C1CCC1)N1CCOCC1CNc1nc(-c2c[nH]c3ncc(Cl)cc23)ncc1F (stereo not shown) [Compound 531, (3-((2-(5-chloro-1H-pyrrolo[2,3-b]pyridin-3-yl)-5-fluoropyrimidin-4-ylamino)methyl)morpholino)(cyclobutyl)methanone] | 5 to 20 µM | < 5 µM
CS(=O)(=O)N1CCOCC1CNc1nc(-c2c[nH]c3ncc(Cl)cc23)ncc1F (stereo not shown) [Compound 532, 2-(5-chloro-1H-pyrrolo[2,3-b]pyridin-3-yl)-5-fluoro-N-((4-(methylsulfonyl)morpholin-3-yl)methyl)pyrimidin-4-amine] | 5 to 20 µM | < 5 µM
O=S(=O)(C1CC1)N1CCOCC1CNc1nc(-c2c[nH]c3ncc(Cl)cc23)ncc1F (stereo not shown) [Compound 533, 2-(5-chloro-1H-pyrrolo[2,3-b]pyridin-3-yl)-N-((4-(cyclopropylsulfonyl)morpholin-3-yl)methyl)-5-fluoropyrimidin-4-amine] | 5 to 20 µM | < 5 µM
NC(=O)N1CCOCC1CNc1nc(-c2c[nH]c3ncc(Cl)cc23)ncc1F (stereo not shown) [Compound 534, 3-((2-(5-chloro-1H-pyrrolo[2,3-b]pyridin-3-yl)-5-fluoropyrimidin-4-ylamino)methyl)morpholine-4-carboxamide] | 5 to 20 µM | < 5 µM
CCNC(=O)N1CCOCC1CNc1nc(-c2c[nH]c3ncc(Cl)cc23)ncc1F (stereo not shown) [Compound 535, 3-((2-(5-chloro-1H-pyrrolo[2,3-b]pyridin-3-yl)-5-fluoropyrimidin-4-ylamino)methyl)-N-ethylmorpholine-4-carboxamide] | 5 to 20 µM | > 10 µM
CC(C)NC(=O)N1CCOCC1CNc1nc(-c2c[nH]c3ncc(Cl)cc23)ncc1F (stereo not shown) [Compound 536, 3-((2-(5-chloro-1H-pyrrolo[2,3-b]pyridin-3-yl)-5-fluoropyrimidin-4-ylamino)methyl)-N-isopropylmorpholine-4-carboxamide] | 5 to 20 µM | > 10 µM
COCC(O)CN1CCCC(Nc2nc(-c3c[nH]c4ncc(Cl)cc34)ncc2F)C1 [Compound 537, 1-((S)-3-((2-(5-chloro-1H-pyrrolo[2,3-b]pyridin-3-yl)-5-fluoropyrimidin-4-ylamino)piperidin-1-yl)-3-methoxypropan-2-ol] | < 5 µM | < 5 µM
CC[C@H](O)CN1CCCC(Nc2nc(-c3c[nH]c4ncc(Cl)cc34)ncc2F)C1 (stereo partly shown) [Compound 538] | < 5 µM | < 5 µM
